Measured values from DBAASP.
Values after ≈ are worked out from the molar mass of the structure shown.

Columns and labels:
Assay in all cases: ≥ marks a high value that may be exact or a test limit, other limits are often not marked, values filed in µg/mL are converted to µM
[1] = test system: Enterobacter cloacae Ha088
[2] = test system: Acinetobacter baumannii Ab5753
[3] = test system: Escherichia coli DSM 1103
[4] = test system: Escherichia coli ATCC 25922
[5] = test system: Escherichia coli MC1061
[6] = test system: Enterobacter cloacae 34654
[7] = test system: Pseudomonas aeruginosa ATCC 27853
[8] = test system: Stenotrophomonas sp. ICB 7789
[9] = test system: Escherichia coli
[10] = test system: Acinetobacter baumannii ICB 9250
[11] = test system: Escherichia coli BL21AI
[12] = test system: Enterobacter cloacae Ha089
[13] = test system: Escherichia coli Ec513
[14] = test system: Acinetobacter baumannii ICB 14072
[15] = test system: Pseudomonas aeruginosa
[16] = test system: Klebsiella pneumoniae CMCC 46117
[17] = test system: Acinetobacter baumannii M17

CC[C@H](C)[C@H](NC(=O)[C@H](CCCN=C(N)N)NC(=O)[C@H](CCCN=C(N)N)NC(=O)[C@@H]1CCCN1C(=O)[C@@H]1CCCN1C(=O)[C@H](CCCN=C(N)N)NC(=O)[C@@H]1CCCN1C(=O)[C@H](CCCN=C(N)N)NC(=O)[C@@H]1CCCN1C(=O)[C@H](CC(C)C)NC(=O)[C@H](Cc1ccc(O)cc1)NC(=O)[C@@H]1CCCN1C(=O)[C@@H]1CCCN1C(=O)[C@H](CCCCN)NC(=O)[C@H](CC(=O)O)NC(=O)[C@@H](N)C(C)C)C(=O)N[C@@H](Cc1ccc(O)cc1)C(=O)N[C@@H](CC(N)=O)C(=O)N[C@@H](CCCN=C(N)N)C(N)=O [VDKPPYLPRPRPPRRIYNR]
MIC [1]: 0.0523 µM (≈ 0.125 µg/mL)
MIC [2]: ≥ 53.5 µM
MIC [3]: 3.35 µM (≈ 8 µg/mL)
MIC [4]: 8 µM (≈ 19.1 µg/mL)
MIC [5]: 0.126 µM (≈ 0.3 µg/mL)
MIC [6]: 0.105 µM (≈ 0.25 µg/mL)
MIC [7]: 1.67 µM (≈ 4 µg/mL)
MIC [8]: 13.4 µM (≈ 32 µg/mL)
MIC [9]: 0.296 µM (≈ 0.707 µg/mL)
MIC [10]: 0.209 µM (≈ 0.5 µg/mL)
MIC [11]: 1.67 µM (≈ 4 µg/mL)
MIC [12]: 0.0523 µM (≈ 0.125 µg/mL)
MIC [13]: ≥ 53.5 µM
MIC [14]: 0.418 µM (≈ 1 µg/mL)
MIC [15]: 1.18 µM (≈ 2.83 µg/mL)
MIC [16]: 2 µM (≈ 4.78 µg/mL)
MIC [17]: 0.418 µM (≈ 1 µg/mL)
